# Test results taken from patent US20100028406A1, “TOPICAL DRUG DELIVERY BY IONTOPHORESIS” (UNIVERSITE DE GENEVE, priority 2005, published 2010).
# Where two headings read alike, the source gives them in different places.
# Assays:
# [1] = Iontophoresis across porcine skin in vitro, 3-compartment cells, acetaminophen as electroosmosis marker
# Protocol: Porcine ear skin, which is a well-accepted model for human skin (Dick and Scott, 1992; Sekkat et al., 2002), was used in these studies. Porcine ears were obtained from a local abattoir (Société d'Exploitation d'Abbatage, Annecy, France) a few hours after the sacrifice of the animals. The excised skin was then dermatomed (˜750 μm) on the same day and stored at −20° C. for a maximum of two months.
# Iontophoresis was performed using vertical 3-compartment cells (FIG. 2). The skin was placed between two half-cells: the upper half, in contact with the SC, comprised two electrode/donor compartments, while the lower receiver compartment was in contact with the dermis. A flow-through system circulated phosphate-buffered normal saline (PBS: 16.8 mM Na2HPO4, 1.4 mM KH2PO4 and 136.9 mM NaCl; pH 7.4) through the receiver chamber (volume 4.7 mL) at a rate of 3 mL/h. Ag/AgCl electrodes were used throughout the study. The skin was allowed to equilibrate for one hour prior to the iontophoresis experiment. In order to reduce competition from Na^+ ions present in the donor, and thus to increase the permeation of VCV, most experiments were performed using a salt bridge assembly. This strategy consists of physically separating the anodal chamber (Ag electrode immersed in PBS pH 7.4) from the donor compartment (drug solution in contact with the SC) and employing a salt bridge (prepared by filling a 12 cm tubing with a warm aqueous solution of 3% agarose and 0.1 M NaCl and then allowed to cool) to electrically connect the two chambers. […] For control experiments without the salt bridge, the anodal compartment contained 1 mL of 10 mM VCV.HCl in PBS pH 7.4. The cathodal compartment contained PBS pH 7.4 in all the experiments. A constant current of 0.34 mA was applied for 7 hours (equivalent to a current density of 0.5 mA/cm^2).
# Acetaminophen (ACE, 15 mM) was included in the donor solution as a marker for electroosmotic flow. Being a small, polar and neutral molecule, it is transported mainly by convective solvent flow during iontophoresis. Therefore, its flux can be used to determine the contribution of electroosmosis to the total iontophoretic flux,
# where JEO represents the contribution of electroosmosis (EO) to delivery, vA→C is the convective solvent flow from the anode to cathode, and CD is the donor concentration of the drug.
# The experiments were performed in sextuplicate, except for passive delivery (n=3), using the skin of as many different animals as possible. Samples were collected hourly and analyzed by high pressure liquid chromatography (HPLC). The HPLC system consisted of a 600 E Controller pump, an Autosampler Injector 717-plus, an In Line Degasser, and a UV 2487 dual λ Detector (Waters, Saint-Quentin Yvelines, France). The separation was performed on a Nucleosil® 100-5 C18 Nautilus column (L: 125 mm; ID: 4.6 mm; Macherey-Nagel, Hoerdt, France) with a 99:1 mixture of 0.1% trifluoroacetic acid (TFA) in water (pH 2.5): MeCN. The flow rate was 1 mL/min, the temperature was adjusted to 30° C., and 50 μL of sample were injected.
# The iontophoretic flux (JTOT) of a charged species is considered to be the sum of two separate transport processes—electromigration (JEM) and electroosmosis (JEO), assuming negligible passive skin permeability (Sage Jr., 1995):
# JTOT,VCV=JEM,VCV+JEO,VCV (equation 2)
# Briefly, electromigration occurs as a result of increased molecular transport in the presence of an applied electric field, whereas electroosmosis refers to transport mediated by the bulk solvent flow across the skin (in the anode-to-cathode direction) due to the skin's permselectivity for cations under physiological conditions.
# [2] = calculated (Denny, 2003); cited from earlier work
# [3] = Cutaneous conversion of VCV to ACV in contact with skin (SC and dermis); type: in vitro ADME, porcine
# Protocol: (§1) The aqueous stability of VCV in the donor formulations was investigated by periodic sampling of solutions (2 and 10 mM in water with 15 mM acetaminophen) over a period of 44 hours. In addition, the impact of an electrical current (0.34 mA) on this stability was examined over the same period. The chemical hydrolysis of VCV was also investigated in the presence of PBS pH 7.4. The cutaneous conversion of VCV to ACV via hydrolytic cleavage of the ester bond was verified as follows. Cells were assembled as for an iontophoresis experiment. A 100 μM solution of VCV in PBS pH 7.4 was placed in all the cell compartments and left in contact with the skin (SC and dermis) for 4 hours. The compartments were assayed for ACV and VCV immediately afterwards.
# [4] = guinea pig skin, 5% w/w (220 mM) ACV ointment, passive; cited from earlier work
# [5] = human skin, 5% w/w (220 mM) ACV ointment, passive; cited from earlier work
# [6] = topical 220 mM ACV formulation, rabbits in vivo; cited from earlier work
# [7] = cited from earlier work
# [8] = pH 7.4, 25°; cited from earlier work
# [9] = pKa and ionization state of ACV and VCV; type: physicochemical; conditions: for ionization state in the donor phase: unbuffered formulations, ACV pH 6.3, VCV pH 5.7
# [10] = cited from earlier work; remark: listed apart in the source
# [11] = Aqueous stability of VCV in donor formulations and in PBS pH 7.4; type: physicochemical
# Protocol: as §1
# [12] = iontophoresis, rabbit skin; cited from earlier work
smiles,measurement,setting,value
"Nc1nc2c(ncn2COCCO)c(=O)[nH]1 [ACV, acyclovir]",donor concentration-normalized flux,"[1]; pig, 7 h, 2 mM, pH 6.3",0.0024 cm/h
same,mechanism of iontophoretic transport across the skin,"[1]; unbuffered formulations, ACV pH 6.3, VCV pH 5.7",entirely by EO
same,calculated log P and log D values,[2],−1.76
same,"stability in contact with the skin, donor and receptor chambers","[3]; 100 μM, 4 hours, SC and dermis",stable
same,in vitro flux,[4],0.21 nmol/cm^2/h
same,in vitro flux,[5],0.24 nmol/cm^2/h
same,dermal concentrations (microdialysis),[6],below the limit of detection
same,donor concentration-normalized flux,"[7]; human skin, physiological pH, iontophoresis",0.0027 cm/h
same,epidermal concentrations,[7]; iontophoretic administration across human skin,~80 µg/mL
same,aqueous solubility,[8],1300 µg/mL
same,ionization state in the donor phase,[9],effectively uncharged
same,ionized fraction,[10]; pH 3.0,20%
same,ionized fraction,[10]; pH 7.4,2%
"CC(C)[C@H](N)C(=O)OCCOCn1cnc2c(=O)[nH]c(N)nc21 [VCV, valaciclovir]",mechanism of iontophoretic transport across the skin,[1],almost entirely to electromigration (EM)
same,average flux Jt=0-3 h,"[1]; pig, 2 mM",385±158 nmol/cm^2/h
same,average flux Jt=0-3 h,"[1]; pig, 10 mM",479±258 nmol/cm^2/h
same,flux Jt=0-7 h,"[1]; pig, 10 mM",510±219 nmol/cm^2/h
same,amount reaching the receptor as fraction of the applied dose,"[1]; pig, 4 h, 2 mM",50%
same,EM contribution to the total flux,"[1]; pig, 7 h, 10 mM, pH 7.4",73%
same,transport number,"[1]; pig, 7 h, pH 7.4",~0.03
same,calculated log P and log D values,[2],−0.78
same,enzymatic conversion after contact with the SC,"[3]; 100 μM in PBS pH 7.4, 4 hours",not observed
same,hydrolysis after contact with the dermis,"[3]; 100 μM in PBS pH 7.4, 4 hours, receiver (dermal) compartment",completely hydrolyzed to ACV
same,prodrug converted to ACV,"[11]; PBS pH 7.4, over 7 hrs",~12%
same,VCV converted into ACV,"[11]; unbuffered aqueous solutions (2 and 10 mM) with acetaminophen, 44 hours, absence of a current",Less than 1%
same,extent of degradation of VCV,"[11]; unbuffered aqueous solutions, presence of a current (0.34 mA), over 7 hours",~1%
same,protonated fraction,[9]; physiological pH,~50%
same,ionization state in the donor phase,[9],fully protonated
CC12CCC3C(CC=C4CC(OC(=O)CN)CCC43C)C1CCC2=O (centres unmarked) [glycyl ester of DHEA],increase in permeation compared to the parent DHEA,[12],3 fold
